In patent US10034886B2, “GLP-1 receptor modulators” (Celgene International II SÀRL, priority 2014, dated 2018) one finds EC50 data, which are given here for 50 compounds.

For orientation: pEC50 means the EC50 on a negative log10 scale, so that one unit is a factor of ten.

pEC50: −log10 of the molar value.

T1 sequence (P43220 24-463): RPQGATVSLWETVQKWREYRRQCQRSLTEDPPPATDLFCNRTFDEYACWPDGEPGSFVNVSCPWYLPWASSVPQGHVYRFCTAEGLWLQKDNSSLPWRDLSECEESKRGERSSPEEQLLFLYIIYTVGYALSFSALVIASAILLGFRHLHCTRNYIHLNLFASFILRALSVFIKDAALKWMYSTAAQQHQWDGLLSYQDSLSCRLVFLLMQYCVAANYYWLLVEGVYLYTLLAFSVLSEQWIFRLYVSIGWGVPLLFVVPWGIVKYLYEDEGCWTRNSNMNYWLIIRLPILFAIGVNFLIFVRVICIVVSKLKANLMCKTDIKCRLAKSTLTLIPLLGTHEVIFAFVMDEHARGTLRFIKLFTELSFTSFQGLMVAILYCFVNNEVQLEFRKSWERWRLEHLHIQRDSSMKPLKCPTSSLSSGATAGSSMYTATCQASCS
T1 sequence (P01275 100-127 partner limits assumed): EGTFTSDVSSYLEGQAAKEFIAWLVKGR

The test has as its target T1, GLP-1R (Homo sapiens, UniProt P43220).
T1 construct: host or cells: GLP-1R CRE-bla CHO-K1 cells
Put plainly: EC20 GLP-1(9-36) PAM cAMP assay: dose response of compound in the presence of fixed concentration of GLP-1(9-36). Format: cell-based. The following applies: dose response of compound in presence of fixed concentration of GLP-1(9-36), GLP-1R CRE-bla CHO-K1 cells, read-out: EC20 GLP-1(9-36) PAM EC50. The procedure, abridged: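 GLP-1R CRE-bla CHO-K1 cells treated 30 min at 37 °C with 12-point compound dose response plus fixed EC20 GLP-1(9-36), with IBMX, in HBSS/HEPES/0.1% BSA pH 7.4. Total cAMP measured by luminescent detection against standard curve; EC50 and Emax from non-linear regression.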
On the technique in general: Cyclic AMP is a second messenger, typically raised through Gs and lowered through Gi signalling.
In the case of `CCCCCCCOc1ccc(-c2nc(-c3ccc(C[C@H](NC(=O)c4ccc(C(C)(C)C)cc4)C(=O)N[C@H](C)C(=O)O)cc3)no2)cc1` [Compound 801], the pEC50 is 5.00 to 5.30.
`CCCCCCCOc1ccc(-c2nnc(-c3ccc(C[C@H](NC(=O)c4ccc(C(C)(C)C)cc4)C(=O)N[C@H](C)C(=O)O)cc3)s2)cc1` [Compound 802]: the pEC50 was 5.30 to 5.60.
In the case of `CC(C)(C)c1ccc(C(=O)N[C@@H](Cc2ccc(-c3ncc(-c4ccc(OCC5CCC(C(C)(C)C)CC5)cc4)cn3)cc2)C(=O)NCCC(=O)O)cc1` (some centres unmarked) [Compound 803] it was 5.60 to 6.10.
In the case of `CCCCCCCOc1ccc(N2CCN(c3ccc(C[C@H](NC(=O)c4ccc(C(C)(C)C)cc4)C(=O)N[C@H](C)C(=O)O)cc3)CC2)cc1` [Compound 804] it was 5.60 to 6.10; in that of `CCCCCCCOc1ccc2nc(-c3ccc(C[C@H](NC(=O)c4ccc(C(C)(C)C)cc4)C(=O)N[C@H](C)C(=O)O)cc3)ccc2c1` [Compound 806], 5.60 to 6.10.
The same measure for `CCCCCCCOc1ccc2nc(-c3ccc(C[C@H](NC(=O)c4ccc(C(C)(C)C)cc4)C(=O)N4CC[C@H](C(=O)O)C4)cc3)ccc2c1` [Compound 807]: 5.00 to 5.30; for `CCCCCCCOc1ccc2cc(-c3ccc(C[C@H](NC(=O)c4ccc(C(C)(C)C)cc4)C(=O)N[C@H](C)C(=O)O)cc3)ncc2c1` [Compound 808]: 5.30 to 5.60; for `CCCCCCCOc1ccc2nc(-c3ccc(C[C@H](NC(=O)c4ccc(C(C)(C)C)cc4)C(=O)N[C@H](C)C(=O)O)cc3)ncc2c1` [Compound 809]: 5.60 to 6.10.
In the case of `CCCCCCCOc1ccc2nc(-c3ccc(C[C@H](NC(=O)c4ccc(C(C)(C)C)cc4)C(=O)N4CC[C@H](C(=O)O)C4)cc3)ncc2c1` [Compound 810], the negative-log EC50 (pEC50) was 5.00 to 5.30.
In the case of `CCCCCCCOc1ccc(-c2ccc(-c3ccc(C[C@H](NC(=O)c4ccc(C(C)(C)C)s4)C(=O)N[C@H](C)C(=O)O)cc3)nc2)cc1` [Compound 811] it was 5.60 to 6.10.
The same measure for `CCCCCCCOc1ccc(-c2cnc(-c3ccc(C[C@H](NC(=O)c4ccc(C(C)(C)C)s4)C(=O)N[C@H](C)C(=O)O)cc3)c(C)c2)cc1` [Compound 812]: 5.60 to 6.10; for `CCCCCCCOc1ccc(-c2cnc(-c3ccc(C[C@H](NC(=O)c4ccc(CC(C)C)s4)C(=O)N[C@H](C)C(=O)O)cc3)nc2)cc1` [Compound 813]: 5.60 to 6.10.
The same measure for `CCCCCCCOc1ccc(-c2cnc(-c3ccc(C[C@H](NC(=O)c4cc5c(s4)CCC(C)C5)C(=O)N[C@H](C)C(=O)O)cc3)nc2)cc1` (some centres unmarked) [Compound 814]: 5.60 to 6.10; for `CCCCCCCOc1ccc(-c2cnc(-c3ccc(C[C@H](NC(=O)c4ccc(C(F)(F)F)s4)C(=O)N[C@H](C)C(=O)O)cc3)nc2)cc1` [Compound 815]: above 6.10; for `CCCCCCCOc1ccc(-c2cnc(-c3ccc(C[C@H](NC(=O)c4ccc(S(C)(=O)=O)cc4)C(=O)N[C@H](C)C(=O)O)cc3)nc2)cc1` [Compound 816]: 5.60 to 6.10.
Regarding `CCCCCCCOc1ccc(-c2cnc(-c3ccc(C[C@H](NC(=O)c4ccc(OC)cc4)C(=O)N[C@H](C)C(=O)O)cc3)nc2)cc1` [Compound 817], the pEC50 is 5.60 to 6.10.
The same measure for `CCCCCCCOc1ccc(-c2cnc(-c3ccc(C[C@H](NC(=O)c4ccc(OCC)cc4)C(=O)N[C@H](C)C(=O)O)cc3)nc2)cc1` [Compound 818]: 5.60 to 6.10.
The same measure for `CCCCCCCOc1ccc(-c2cnc(-c3ccc(C[C@H](NC(=O)c4ccc(CCCC)cc4)C(=O)N[C@H](C)C(=O)O)cc3)nc2)cc1` [Compound 819]: 5.30 to 5.60.
Turning to `CCCCCCCOc1ccc(-c2cnc(-c3ccc(C[C@H](NC(=O)c4ccc(CCCC)cc4)C(=O)N[C@H](C)C(=O)O)cc3)nc2)cc1` [Compound 820], the negative logarithm of the EC50 (pEC50) is 5.30 to 5.60.
In the case of `CCCCCCCOc1ccc(-c2cnc(-c3ccc(C[C@H](NC(=O)c4ccc(CCCC)cc4)C(=O)N[C@H](C)C(=O)O)cc3)nc2)cc1` [Compound 821] it was 5.60 to 6.10.
The same measure for `CCCCCCCOc1ccc(-c2cnc(-c3ccc(C[C@H](NC(=O)c4ccc(C(F)(F)F)cc4)C(=O)N[C@H](C)C(=O)O)cc3)nc2)cc1` [Compound 822]: 5.30 to 5.60; for `CCCCCCCOc1ccc(-c2cnc(-c3ccc(C[C@H](NC(=O)c4ccc(CC(C)C)cc4)C(=O)N[C@H](C)C(=O)O)cc3)nc2)cc1` [Compound 823]: 5.60 to 6.10.
The same measure for `CCCCCCCOc1ccc(-c2cnc(-c3ccc(C[C@H](NC(=O)c4ccc(Oc5ccccc5)cc4)C(=O)N[C@H](C)C(=O)O)cc3)nc2)cc1` [Compound 824]: above 6.10; for `CCCCCCCOc1ccc(-c2cnc(-c3ccc(C[C@H](NC(=O)c4ccc(Cc5ccccc5)cc4)C(=O)N[C@H](C)C(=O)O)cc3)nc2)cc1` [Compound 825]: above 6.10; for `CCCCCCCOc1ccc(-c2cnc(-c3ccc(C[C@H](NC(=O)CN(C)C)C(=O)N[C@H](C)C(=O)O)cc3)nc2)cc1` [Compound 826]: 5.30 to 5.60.
On to `CCCCCCCOc1ccc(-c2cnc(-c3ccc(C[C@H](NC(=O)c4ccc(C5CC5)cc4)C(=O)N[C@H](C)C(=O)O)cc3)nc2)cc1` [Compound 827], for which the negative logarithm of the EC50 (pEC50) was 5.60 to 6.10.
In the case of `CCCCCCCOc1ccc(-c2cnc(-c3ccc(C[C@H](NC(=O)c4ccc(CC)cc4)C(=O)N[C@H](C)C(=O)O)cc3)nc2)cc1` [Compound 828] it was above 6.10; in that of `CCCCCCCOc1ccc(-c2cnc(-c3ccc(C[C@H](NC(=O)c4ccc(OCC(C)C)cc4)C(=O)N[C@H](C)C(=O)O)cc3)nc2)cc1` [Compound 829], 5.00 to 5.30.
Consider `CCCCCCCOc1ccc(-c2cnc(-c3ccc(C[C@H](NC(=O)c4ccc(CCC)cc4)C(=O)N[C@H](C)C(=O)O)cc3)nc2)cc1` [Compound 830], for which the negative logarithm of the EC50 (pEC50) was 5.00 to 5.30.
For the compound `CCCCCCCOc1ccc(-c2cnc(-c3ccc(C[C@H](NC(=O)c4cnc(C(C)(C)C)nc4)C(=O)N[C@H](C)C(=O)O)cc3)nc2)cc1` [Compound 832], the pEC50 is 5.30 to 5.60.
For `CCCCCCCOc1ccc(-c2cnc(-c3ccc(C[C@H](NC(=O)[C@H]4CC[C@H](C(C)(C)C)CC4)C(=O)N[C@H](C)C(=O)O)cc3)nc2)cc1` [Compound 833], the pEC50 was 5.00 to 5.30.
The same measure for `CCCCCCCOc1ccc(-c2cnc(-c3ccc(C[C@H](NC(=O)c4ccc(C(C)(C)CC)cc4)C(=O)N[C@H](C)C(=O)O)cc3)nc2)cc1` [Compound 834]: 5.60 to 6.10.
The same measure for `CCCCCCCOc1ccc(-c2cnc(-c3ccc(C[C@H](NC(=O)c4ccc(C(C)(C)C#N)cc4)C(=O)N[C@H](C)C(=O)O)cc3)nc2)cc1` [Compound 835]: 5.30 to 5.60.
The same measure for `CCCCCCCOc1ccc(-c2cnc(-c3ccc(C[C@H](NC(=O)c4ccc(C(C)(C)C)cc4OCC)C(=O)N[C@H](C)C(=O)O)cc3)nc2)cc1` [Compound 836]: 5.30 to 5.60.
Turning to `CCCCCCCOc1ccc(-c2cnc(-c3ccc(C[C@H](NC(=O)c4ccc(C(C)(C)C)c(OC)c4)C(=O)N[C@H](C)C(=O)O)cc3)nc2)cc1` [Compound 837], the negative-log EC50 (pEC50) is above 6.10.
The same measure for `CCCCCCCOc1ccc(-c2cnc(-c3ccc(C[C@H](NC(=O)c4ccn(C(C)(C)C)c4)C(=O)N[C@H](C)C(=O)O)cc3)nc2)cc1` [Compound 838]: 5.60 to 6.10.
In the case of `CCCCCCCOc1ccc(-c2cnc(-c3ccc(C[C@H](NC(=O)c4ccc(CC)s4)C(=O)N[C@H](C)C(=O)O)cc3)nc2)cc1` [Compound 839] it was 5.60 to 6.10; in that of `CCCCCCCOc1ccc(-c2cnc(-c3ccc(C[C@H](NC(=O)c4ccc(CCC)s4)C(=O)N[C@H](C)C(=O)O)cc3)nc2)cc1` [Compound 840], 5.60 to 6.10; in that of `CCCCCCCOc1ccc(-c2cnc(-c3ccc(C[C@H](NC(=O)c4ccc(C(C)C)s4)C(=O)N[C@H](C)C(=O)O)cc3)nc2)cc1` [Compound 841], 5.60 to 6.10.
In the case of `CCCCCCCOc1ccc(-c2cnc(-c3ccc(C[C@H](NC(=O)c4ccc(C5CC5)s4)C(=O)N[C@H](C)C(=O)O)cc3)nc2)cc1` [Compound 842] it was 5.60 to 6.10; in that of `CCCCCCCOc1ccc(-c2cnc(-c3ccc(C[C@H](NC(=O)c4ccc(C(C)(C)C)cc4C)C(=O)N[C@H](C)C(=O)O)cc3)nc2)cc1` [Compound 843], 5.60 to 6.10; in that of `CCCCCCCOc1ccc(-c2cnc(-c3ccc(C[C@H](NC(=O)c4ccc(C(C)C)cc4)C(=O)N4CC[C@H](C(=O)O)C4)cc3)nc2)cc1` [Compound 844], 5.60 to 6.10.
In the case of `CCCCCCCOc1ccc(-c2cnc(-c3ccc(C[C@H](NC(=O)c4ccc(C(C)C)s4)C(=O)N4CC[C@H](C(=O)O)C4)cc3)nc2)cc1` [Compound 845], the pEC50 was 5.30 to 5.60.
With `CCCCCCCOc1ccc(-c2cnc(-c3ccc(C[C@H](NC(=O)c4ccc(OC)cc4)C(=O)N4CC[C@H](C(=O)O)C4)cc3)nc2)cc1` [Compound 846], the negative-log EC50 (pEC50) was 5.30 to 5.60.
The same measure for `CCCCCCCOc1ccc(-c2cnc(-c3ccc(C[C@H](NC(=O)c4ccc(CC(C)C)s4)C(=O)N4CC[C@H](C(=O)O)C4)cc3)nc2)cc1` [Compound 847]: 5.30 to 5.60; for `CCCCCCCOc1ccc(-c2cnc(-c3ccc(C[C@H](NC(=O)c4ccc(OCC)cc4)C(=O)N4CC[C@H](C(=O)O)C4)cc3)nc2)cc1` [Compound 848]: 5.30 to 5.60.
The same measure for `CCCCCCCOc1ccc(-c2cnc(-c3ccc(C[C@H](NC(=O)c4ccc(OC(C)C)cc4)C(=O)N4CC[C@H](C(=O)O)C4)cc3)nc2)cc1` [Compound 849]: 5.30 to 5.60.
In the case of `CCCCCCCOc1ccc(-c2cnc(-c3ccc(C[C@H](NC(=O)c4ccc(CCCC)cc4)C(=O)N4CC[C@H](C(=O)O)C4)cc3)nc2)cc1` [Compound 850] it was 5.30 to 5.60; in that of `CCCCCCCOc1ccc(-c2cnc(-c3ccc(C[C@H](NC(=O)c4ccc(CC(C)C)cc4)C(=O)N4CC[C@H](C(=O)O)C4)cc3)nc2)cc1` [Compound 851], 5.30 to 5.60.
Take `CCCCCCCOc1ccc(-c2cnc(-c3ccc(C[C@H](NC(=O)c4ccc(C(C)(C)C)cc4OC)C(=O)N4CC[C@H](C(=O)O)C4)cc3)nc2)cc1` [Compound 852]: the pEC50 is 5.30 to 5.60.
